Assay results reported in US12589114B2 (The Board of Trustees of the Leland Stanford Junior …, priority 2019, dated 2026).

Tests used:
GABRR1 [1] = molecular target: T1, GABRR1 (Mus musculus, UniProt P56475); assay: Patch-clamp recording of GABA-evoked currents in purified GR+ and GR− MkPs and HSCs; format: cell-based; settings: 1 mM GABA, whole-cell patch clamp
T1 construct: Mice were randomly grouped and injected once everyday using GABA agonists and antagonists; from tissue; host or cells: whole animal (C57BL/6J mice); read-outs in peripheral blood and bone marrow
T1 sequence (P56475 22-480): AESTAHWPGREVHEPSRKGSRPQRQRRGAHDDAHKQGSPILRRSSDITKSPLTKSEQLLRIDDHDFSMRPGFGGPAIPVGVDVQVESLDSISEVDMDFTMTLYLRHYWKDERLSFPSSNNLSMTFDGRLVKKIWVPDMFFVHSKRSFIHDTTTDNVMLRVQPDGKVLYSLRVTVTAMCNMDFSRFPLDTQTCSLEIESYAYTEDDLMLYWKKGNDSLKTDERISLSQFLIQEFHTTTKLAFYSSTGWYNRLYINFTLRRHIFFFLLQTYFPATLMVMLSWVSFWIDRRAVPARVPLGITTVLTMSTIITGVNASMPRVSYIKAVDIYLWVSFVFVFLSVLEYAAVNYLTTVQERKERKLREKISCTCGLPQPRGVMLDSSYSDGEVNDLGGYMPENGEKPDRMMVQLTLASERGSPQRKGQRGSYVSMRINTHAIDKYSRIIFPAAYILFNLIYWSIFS
Source text: Gabrr1^+ (GR^+) and Gabrr1^− (GR^−) HSCs or MkPs cells were then purified and tested by electrophysiological recording using patch-clamp techniques.
Electrophysiology. Whole-cell voltage-clamped recordings were made from the dissociated blood cells perfused in oxygenated ACSF containing the following (in mM): 119 NaCl, 26 NaHCO3, 10 glucose, 1.25 NaH2PO4, 2.5 KCl, 2 CaCl2, 1 MgCl2, 2 Na-pyruvate, and 0.5 ascorbic acid, pH 7.4. […] Cells were voltage clamped at various levels between −80 mV to 60 mV. The pipette internal solution contains (in mM): 120 Cs—Cl, 20 tetraethylammonium-Cl, 20 HEPES, 2 EGTA, 4 MgATP, 0.4 NaGTP, 10 phosphocreatine.
The drug was applied through a second pipette (resistance of 3-4 MΩ) connected to Picospritzer (Cleveland, OH, USA) at a pulse duration of 100 ms and pressure of 5-10 kPa.

GABRR1 [2] = molecular target: T1, GABRR1; assay: Flow cytometry of bone marrow HSPC populations of mice treated with agonists or antagonists of Gabrr1; format: in vivo; settings: C57BL/6J mice, 7 days of treatment
Protocol: (§1) Mouse injection. […] Muscimol 2 mg/kg, TACA 2 mg/kg and SR95531 4 mg/kg was injected by i.p. The mice were treated for 7 days and then complete blood cell counting was done with the HemaTrue Hematology Analyzer (HESKE).
Flow Cytometry. Mouse bone marrow cells were harvested, washed, and resuspended in PBS containing 2% FBS, and subjected to the staining process with antibodies at their optimal concentrations. […] Then, to enrich HSCs and progenitor populations, cells were stained with APC-conjugated anti-c-Kit (2B8) and then with anti-APC magnetic beads (Miltenyi Biotec) after washing. The c-Kit+cells were eluted from LS columns (Miltenyi Biotec). Those cells then stained with the antibody cocktail directed against cell surface antigens as follows: for early progenitor analysis, Sca-1, Flk2, CD150, CD34, IL-7R, CD16/32, c-kit and the lineage markers Ter-119, B220, CD3, CD4, CD8a, Gr-1, CD11b, CD41. For late stage populations, cells were stained with antibodies specific for Sca-1, Endoglin [CD105], CD150, CD16/32, c-kit [CD117] and the lineage markers for 30 min at 4° C., DNA dye was used for the live/dead cells staining.
Surface marker cocktail of mouse hematopoietic stem and progenitor populations: • HSC: Lin-c-kit+Sca1+CD150+Endoglin+ • MPP: Lin-c-kit+Sca1+Endoglin−CD150− • GMP: Lin-c-kit+Sca1− CD41−FcgRII+ • EP: Lin-c-kit+Sca1− CD41−FcgRII−Endogilin+CD150− • MkP: Lin-c-kit+Sca1− CD150+CD41+ • PreGM: Lin-c-kit+Sca1− CD41−FcgRII−Endogilin−CD150− • Pre CFU-E: Lin-c-kit+Sca1− CD41−FcgRII−Endogilin+CD150+ • MEP: Lin-c-kit+Sca1− CD41−FcgRII−Endogilin−CD150+.

human CD34+ cells [3] = assay: Real-time PCR of megakaryocyte-related genes in 7-day differentiated cells from CD34+ bone marrow cells; format: cell-based
Protocol: (§2) We treated human CD34+ cells with different agonists and antagonists of GABRR1.
RNA isolation and Real-Time PCR. Total RNA was extracted by RNeasy Plus Micro kit and RNeasy MinElute Cleanup Kit following manufacturer's instructions (Qiagen). Synthesis of cDNA was performed with the SuperScript™ III Reverse Transcriptase (ThermoFisher Scientific). Real time PCR was done using the Fast SYBR® Green Master Mix (ThermoFisher Scientific) on the 7900 Fast Real-Time PCR System (Applied Biosystems). PCR products were analyzed on a 2% agarose gel.

GABRR1 [4] = molecular target: T1, GABRR1; assay: Complete blood cell counts in peripheral blood of mice treated with agonists or antagonists of Gabrr1; format: in vivo; settings: C57BL/6J mice, 7 days of treatment, injected once every day
Protocol: as §1

human CD34+ cells [5] = assay: Flow cytometry of HSPC populations after 7-day differentiation of human CD34+ cells treated with agonists or antagonists of GABRR1; format: cell-based
Protocol: as §2
Cell Isolation and Culture. Human bone marrow mononuclear cells were purchased from AllCells and cultured in StemSpan™ Serum-Free Expansion Medium II (SFEM II, StemCell Technologies), supplemented with 20 ng/ml hSCF (PeproTech), hTPO, hIL-3, hIL-6 and Flt3 (R&D Systems). Mouse bone marrow mononuclear cells were isolated from mice and cultured in StemSpan™ SFEMI (StemCell Technologies), supplemented with mTPO and mSCF (PeproTech). […] Medium was changed every other day.
Human bone marrow or cord blood cells were stained in a similar way using Rat IgG for blocking and PI for viability. Human cells were stained with the antibodies cocktails as follows: CD34, CD38, CD45RA, CD123, CD71, CD105, CD41 and the lineage markers CD2, CD4, CD8, CD11b/Mac-1, CD14, CD19, CD20, CD56 and CD235a. The GABRR1 antibodies were also used for staining (Bloss Antibodies).
Surface marker cocktail of human hematopoietic stem and progenitor populations: • HSCs/MPPs: Lin-CD34+CD38− • MkP: Lin-CD34+CD38+CD123−CD45RA−CD41+ • CMP: Lin-CD34+CD38+CD123lowCD45RA− • MEP: Lin-CD34+CD38+CD123−CD45RA− • GMP: Lin-CD34+CD38+CD123+CD45RA+ • EP: Lin-CD34+CD38+CD123−CD45RA−CD71+CD150+.

human CD34+ cells [6] = assay: CFU-MK colony-forming assay from CD34+ bone marrow cells; format: cell-based
Protocol: as §2
Colony-Forming Unit Assay. Colony forming assay was performed using the MegaCult™-C Complete Kit with Cytokines (Stemcell Tech, 04971)) following manufacturer's instruction, Colonies were counted after 12-14 days of culture and megakaryopoietic colonies were stained using antibody provided in the kit.

[7] = 7-day differentiated human CD34+ cells, relative to non-treated cells

Row | SMILES | GABA-induced currents in GR+ HSCs (GABRR1 [1]) | GABA-induced inward current in GR+ MkP cells (GABRR1 [1]; various membrane potentials) | Increase of bone marrow MkPs (GABRR1 [2]) | Megakaryocyte-related gene expression (human CD34+ cells [3]) | Increase of platelet numbers (GABRR1 [4]) | Change of CD34+CD41+ population (MkP) (human CD34+ cells [5]; [7]) | Change of CD34+CD71+ population (EP) (human CD34+ cells [5]; [7]) | Frequency of all HSPCs tested (human CD34+ cells [5]; multicolor flow cytometry, 7 days of differentiation from CD34+ bone marrow cells) | MkP frequency relative to non-treated cells (human CD34+ cells [5]; multicolor flow cytometry, 7 days of differentiation from CD34+ bone marrow cells, non-treated set to 1) | Decrease in megakaryocyte colonies (human CD34+ cells [6]) [%]
1 | NCCCC(=O)O [GABA, 4-aminobutanoic acid] | significant currents were induced | prominent GABA-induced inward current | 63.7%±24.4% | significantly increased | – | – | – | – | – | –
2 | NCc1cc(=O)[nH]o1 [Muscimol, muscimol] | – | – | 55.0%±26.7% | – | 35.0%±13% | – | – | – | – | –
3 | Br.COc1ccc(-c2ccc(=N)n(CCCC(=O)O)n2)cc1 [SR95531] | – | – | – | – | did not affect platelet number significantly | decreased dramatically | decreased dramatically | decreased the frequency of all HSPCs tested | 40.3%±13.6% | 40
4 | NC/C=C/C(=O)O [TACA, trans-4-aminocrotonic acid] | – | – | 23.3%±31.1% | – | 24.6%±19.0% | – | – | – | – | –
